From patent publication US8022051B2, “Composition for protection and improvement of skin, or reinforcing skin barrier function comprising phosphatidylserine” (Doosan Corporation, priority 2004, dated 2011)

What was measured:
[1] = tested on: TPA-induced ear inflammation in CD-1 mouse; test: Alleviation of skin damage (inflammatory response) due to TPA in mouse ear; assay type: in vivo; details: TPA 0.03%; applied 30 μl per cm^2 at 45 minutes and 4 hours after induction; phosphatidylserine 0.5%, clofibrate 1 mM, Wy14643 1 mM; FIG. 2
Method: In order to examine a skin damage (inflammatory response)-alleviating effect of the phosphatidylserine of the invention, which damage results from skin inflammation-inducing material, a following experiment was performed in accordance with a method used by Sheu et. al. (The Journal of Investigate Dermatology, 118, pp 94-101, 2002).
First, CD-1 mouse (male & female, 6-8 weeks, Charles River, US) was used as an experimental object. TPA (12-0-tetradecanoylphorbol-13-acetate) 0.03% (wt./vol.; in acetone) solution 10 μl, which was skin inflammation-inducing material, was treated to inner and outer parts of both ears of the experimental animal. The ear was thickened due to TPA and there occurred an inflammatory response. Then, clofibrate (1 mM) and Wy14643 (1 mM) as already-known positive control group, which are agonists of PPAR-a, and the 0.5% phosphatidylserine containing aqueous solution used as the Example 1 as an experimental material were applied to both ears in an amount of 30 μl per cm^2 at times of 45 minutes and 4 hours after the inflammation was induced. After that, the treated parts of the ears were subject to a biopsy, and the biopsy parts were fixed to 4% formaldehyde and then subject to Hematoxylene & Eosin (E&H) staining. The tissue slide stained with H&E was magnified to 100 folds to check the inflammation alleviation.

[2] = tested on: skin keratinocyte cell line (HaCaT) and normal human keratinocytes; test: Reduction of inflammatory response induced by ultraviolet irradiation in skin keratinocytes (ELISA of TNF-a, IL-6, IL-1alpha); assay type: cell-based; details: 25 mJ/cm^2 UVB; phosphatidylserine 20 and 40 μM, WY-14643 200 μM; 24 hours; FIG. 3
Method: In order to examine an inflammatory response-reducing effect of the phosphatidylserine of the invention in the skin keratinocyte, which response results from the ultraviolet irradiation, a following experiment was performed in accordance with a method disclosed in the literature (Stefan et. al., The Journal of Investigate Dermatology, 117, pp 1430-1436, 2001).
First, the skin keratinocyte cell line (HaCaT, a gift from Yonsei univeritym, Korea) was seeded to a 35 mm^2 of cell culture dish in an amount of 3×10^5 cells/dish and then cultured for a day. Next day, the culture medium was removed and the cell was washed with 1× phosphate-buffered saline (PBS), 700 μl of 1×PBS was added to each of the dishes, it was irradiated 25 mJ/cm^2 UVB and then PBS was removed. […] Next day, the culture medium was collected and then amounts of TNF-a and IL-6 which have been known as inflammatory cytokines were measured with an enzyme-linked immunosorbent assay (ELISA) method. In addition, in order to check that there occurred a similar inflammatory response reducing effect also in the normal human skin keratinocyte, an experiment was performed in the above-mentioned manner using normal human keratinocytes (a gift from Dong-guk University) instead of the HaCaT cell line and then an amount of IL-1alpha secreted to the culture medium was measured with the ELISA.

[3] = tested on: skin keratinocyte cell line (HaCaT); test: Protection of skin keratinocytes from ultraviolet injury (MTT assay); assay type: cell-based, human; details: 25 mJ/cm^2 UVB; phosphatidylserine 20 and 40 μM, WY-14643 200 μM; 24 hours; FIG. 4
skin = details: applied to the skin; Sheu et al., J Invest Dermatol 118, 94-101, 2002; cited from earlier work
[4] = tested on: skin keratinocytes (HaCaT); test: Protection from ROS (hydrogen peroxide) in skin keratinocytes (MTT assay); assay type: cell-based; details: phosphatidylserine 25 μM, vitamin C 100 μM, vitamin E 100 μM, 24 hours; then 1 mM H2O2 about 1-1.5 hours; FIG. 8
Method: In order to measure an effect of protecting the skin from the ROS in the keratinocyte by the phosphatidylserine of the invention, a following experiment was performed.
First, the skin keratinocytes (HaCaT) were seeded to the 24-well plate in an amount of 5×10^4 cells/well. Next day, it was treated with 25 μM phosphatidylserine aqueous solution (Doosan Biotech, Korea) (phosphatidylserine-treated group), 100 μM vitamin C (ascorbic acid-treated group) and 100 μM vitamin E (a-tocopherol-treated group) as the positive control group and then cultured for 24 hours. Next day, it was treated with 1 mM hydrogen peroxide (H2O2) and then cultured for about 1˜1.5 hours. Then, a cell viability was examined with the MTT assay.

[5] = tested on: normal human keratinocytes; test: Differentiation promoting effect in skin keratinocytes (western blot of involucrin and transglutaminase); assay type: cell-based; details: phosphatidylserine 20 and 40 μM, calcium 1.2 mM, clofibrate 200 and 400 μM; 24 hours; FIG. 5
Method: In order to examine a differentiation promoting effect in the skin keratinocytes by the phosphatidylserine of the invention, a following experiment was performed. First, the normal human keratinocytes (a gift from Dong-guk University) cultured in the KSFM (Keratinocyte-SFM; Gibco BRL/Life Technologies, USA) were seeded to the 35 mm^2 cell culture dish in an amount of 1.5×10^5 cells/dish and then cultured for a day. Next day, the culture medium was removed and a new culture medium containing 20 and 40 μM of phosphatidylserine aqueous solution, 1.2 mM calcium aqueous solution and 200 and 400 μM of clofibrate (Sigma, USA) added thereto was added and cultured for 24 hours. Next day, in order to make sure of a differentiation of the keratinocyte, a morphology change of the cell was checked with a phase contrast microscope (Nikon, Japan) and a photograph was taken with a digital camera attached to the microscope. In addition, a western blot was performed to check the protein expression amount of involucrin and transglutaminase, which have been known as a differentiation-marker proteins of the keratinocyte peculiar to the keratin. 500 μl of a lysis buffer having 2% sodium dodecyl sulfate (SDS) added thereto wad added and the cells were collected with a cell scrapper, so that cell lysate only was obtained. […]

In the case of Cc1cccc(Nc2cc(Cl)nc(SCC(=O)O)n2)c1C [WY14643, reference compound], the “inflammation alleviation (H&E stained ear tissue)” value [1] is reported as “inflammation was alleviated”, the “inflammatory response increased due to the ultraviolet irradiation (TNF-a, IL-6, IL-1alpha amounts)” value [2] is reported as “considerably alleviated” and the “protection of skin keratinocytes from ultraviolet injury (cell survival, MTT)” value [3] is reported as “protected the skin keratinocytes from the ultraviolet injury”. The “inflammation due to the skin stimulating material” value (skin) was “decreased”.

With Cc1c(C)c2c(c(C)c1O)CC[C@@](C)(CCC[C@H](C)CCC[C@H](C)CCCC(C)C)O2 [a-tocopherol, reference compound] the “protection effect from reactive oxygen species (cell viability, MTT)” value [4] was “exhibited the protection effect”.

For O=C1O[C@H]([C@@H](O)CO)C(O)=C1O [ascorbic acid, reference compound], the “protection effect from reactive oxygen species (cell viability, MTT)” value [4] was “exhibited the protection effect”.

For [Ca+2] [calcium, reference compound], the “protein expression of involucrin and transglutaminase” value [5] was “caused the expressions of the two proteins to be increased”.
